Measured values reported in patent US7700111B2, “Auditory nerve protection and re-growth” (The Regents of the University of Michigan, priority 2002, dated 2010).
Entries after “also recorded” stand apart in the source; their conditions may differ.

How the values were obtained:
Format in all cases: in vivo, guinea pig
[1] = test system: outer and inner hair cells; assay: Hair cell count (cytocochleogram) after noise exposure; conditions: for inner hair cell loss / outer hair cell loss: region 9-13 mm from apex, 10 days after noise, versus 0.9% NaCl; for hair cell loss: hair cell type not specified
Description: (§1) Each animal received a drug dose before either being noise-exposed for 5 hours or simply placed in the exposure chamber for 5 hours. Auditory brain stem responses (ABR) were measured 2 days before and 10 days after noise exposure or sham exposure. Immediately after the second ABR measurement, animals were sacrificed for histological examination or for measurement of 8-isoprostane.
(§2) Animals were assigned to one of 17 groups (see Table 3). Eight groups were used to assess the effects of these agents on noise-induced threshold (auditory brain stem response, ABR) sensitivity and hair cell damage (cytocochleogram). Nine groups were used to determine the effects on noise-induced lipid peroxidation. Groups were injected intraperitoneally with 5 ml/kg of 0.9% NaCl, 0.2 mg/ml (+)-MK-801, 0.2 mg/ml (−)-MK-801, 0.2 mg/ml L-NAME, 100 mg/ml NAC, or a mixture of 0.2 mg/ml (+)-MK-801 and 100 mg/ml NAC 30 min before being placed in the exposure chamber. Because of the high clearance of PD 174494, one group of animals received 5 ml/kg of 2 mg/ml PD 174494 intraperitoneally 30 min before and 2 hr into noise exposure. A control group received 5 ml/kg of 0.9% NaCl on the same time schedule.
(§3) Animals were exposed to noise in a lighted and ventilated sound exposure chamber while having free access to food and water. The sound chamber was fitted with speakers driven by a noise generator and a power amplifier. Using a ½-inch Brūel and Kjaer condenser microphone and Fast Fourier Transform analyzer, sound levels were measured and calibrated at multiple locations within the sound chamber to ensure uniformity of the stimulus. The stimulus intensity varied by a maximum of 3 dB across measured sites within the exposure chamber. Animals were individually subjected to 4 kHz octave band noise, 115 dB SPL for 5 hours. Two hours after initiation, noise exposure was interrupted for 10 min to perform the second injection of 0.9% NaCl or PD 174494 in groups requiring it.
Animals were sacrificed under deep anesthesia. The bullae were quickly removed and transferred into 4% paraformaldehyde in 0.01 M phosphate-buffered saline (PBS)(pH 7.4). The bone near the apex, round window, and oval window was opened, followed by two gentle local perfusions from the apex with 1 ml of 4% paraformaldehyde each. The tissue was kept in the fixative for 12 hr. After removal of the bony capsule and the lateral wall tissues, the modiolar core including the organ of Corti was removed from the temporal bone. Following permeabilization with 0.3% Triton X-100 for 10 min, whole-mounts of the organ of Corti were stained for actin with fluorescent phalloidin for 30 min to outline hair cells and their stereocilia for a quantitative assessment (Raphael and Altschuler, Hear. Res., 31:173 [1991]). Slide preparations were observed under fluorescence microscopy and missing (as shown by scar formation) and present (as shown by intact stereocilia) hair cells in the sensory epithelium were counted from the apex to the base in 0.19 mm segments. Percent hair cell loss was calculated for each segment. A group mean cytocochleogram was created by averaging the loss at each segment. Differences were evaluated for statistical significance on the basis of data from the region 9-13 mm from apex, the region of greatest damage in a previous study (Ohinata et al., Hear. Res. 146: 28 [2000]).

8-isoprostane = assay: Cochlear 8-isoprostane (lipid peroxidation) by enzyme immunoassay after noise exposure; conditions: for 8-isoprostane level in the lateral wall / 8-isoprostane level in the modiolar core / 8-isoprostane level in the organ of Corti: after noise exposure, versus 0.9% NaCl
Description: as §1, §2, §3
Animals were anesthetized with xylazine (10 mg/kg) and ketamine (40 mg/kg) given intramuscularly and decapitated. The auditory bullae were removed and the bony capsule of the cochlea was immediately opened.
Guinea pig cochleae were dissected in ice-cold Hanks' balanced salt solution (HBSS, Gibco Laboratories, Grand Island, N.Y.: 1.25 mM CaCl2, 5.55 mM glucose, 0.81 mM MgSO4, 0.44 mM KH2PO4, 136.9 mM NaCl, 0.34 mM Na2HPO4, 5.4 mM KCl, 5.0 mM sodium HEPES, with pH titrated to 7.4 (with NaOH) and osmolality adjusted to 300±1 mOsm with NaCl). Lateral wall tissues (spiral ligament and stria vascularis) and organ of Corti were removed from the modiolar core. The tissues were transferred to a 0.05% dl-dithiothreitol solution to prevent auto-oxidation of arachidonic acid and homogenized with a homogenizer for 30 sec. The homogenate was centrifuged at 7,200×g for 15 min at 4° C. Proteins were measured in aliquots of the supernatant by the Bradford method (Bradford, Anal. Biochem. 72: 248 [1976]). Butyl hydroxytoluene was added to the supernatant to a concentration of 0.1%, followed by 200 μl of ethanol and another homogenization. The homogenate was centrifuged at 1,500×g for 10 min at 4° C. Two hundred μl of 15% KOH was added to the supernatant for determination of the levels of free and esterified 8-isoprostane, and the mixture was incubated at 40° C. for 1 hr. The solution was then acidified to pH 3 with HCl. The samples were applied to octadecylsilyl silica columns pre-activated with methanol and distilled water and subsequently washed with distilled water and then with hexane. 8-isoprostane was eluted with ethyl acetate containing 1% methanol, and the eluate was evaporated under N2 to dryness. The samples were dissolved in 30 μl of acetone and spotted on silica gel G thin layer chromatography plates, which were developed in chloroform/methanol/acetic acid/water (80:18:1:0.8, v/v). 8-isoprostane was located from the Rf of standards run on the same plate and visualized by spraying with 3.5% phosphomolybdic acid. […]

[2] = Noise-induced permanent ABR threshold shift; conditions: 10 days after 4 kHz octave band noise, 115 dB SPL, 5 hours; 2, 4, 8, 16, 20 kHz; drug i.p. 30 min before noise; versus 0.9% NaCl
Description: as §1, §2
Animals were anesthetized with xylazine (10 mg/kg) and ketamine (40 mg/kg) given intramuscularly. A differential active needle electrode was placed subcutaneously below the test ear and a reference electrode at the vertex. A ground electrode was positioned below the contralateral ear. The sound stimuli consisted of 15 ms tone bursts, with a rise-fall time of 1 ms at frequencies of 2, 4, 8, 16 and 20 kHz, and were generated using a Fordham Audio Generator (Model AG-298, Fordham Radio Supply, Hauppauge N.Y.). They were presented to the right external auditory meatus in a closed acoustic system through an ear bar connected to a transducer (Beyer DT-48, Beyer Dynamic, Farmingdale N.Y.). The sound intensity was varied by 5 dB intervals. One thousand twenty-four tone presentations given at the rate of 9 s^−1 were averaged using a microcomputer and custom software to obtain a waveform. Hearing threshold was defined by the consistent appearance of ABR peaks III or IV. Test/retest reliability was within 5 dB. After the second ABR measurement, the cochleae were harvested.
as §3, with “Animals were individually subjected to 4 kHz octave band noise, 115 dB SPL for 5 hours. Two hours after initiation, noise exposure was interrupted for 10 min to perform the second injection of 0.9% NaCl or PD 174494 in groups requiring it.” left out

cochlear vasculature [3] = assay: Cochlear blood flow (laser Doppler), blood pressure and vascular conductance after 8-iso-PGF2a / SQ29,548 infusion; conditions: for blood pressure (BP) response / cochlear blood flow (CBF) response: after administration, dose series; for cochlear vascular conductance (VC = CBF/BP) response: intravenous infusion
Description: (§4) The infusion rate was controlled by a syringe pump. Systemic infusions were achieved via a cannula inserted in the right jugular vein. Changes in cochlear blood flow (CBF) were measured with the fine probe of a laser Doppler flowmeter (LDF) placed on the bony surface of the cochlea. Arterial blood pressure (BP) and heart rate were monitored from a cannula in the right carotid artery. BP and CBF were continuously recorded, as was their ratio (CBF/BP) as a derived measure of cochlear vascular […] (VC). The results are shown if FIGS. 10-18.

cochlear vasculature [4] = assay: Noise-induced cochlear vasoconstriction (120 dB, one hour); conditions: given intraperitoneally 1 hour before noise exposure
Description: as §4
Three guinea pigs were exposed to high intensity (120 dB) noise for one hour (6×10 min, red lines in top panel). BP, CBF, and VC measurements were made during 2-min off-noise periods. Over the course of the exposure, there was pronounced vasoconstriction (VC) and decrease in cochlear blood flow (CBF), while BP remained stable (mean±SD).
Noise exposure was as in FIG. 15. However, when the antioxidant glutathione-monoethyl ester (GSHE) was given intraperitoneally 1 hour before noise exposure, the effect of noise on CBF and VC was eliminated.

[5] = AICA infusion of ~25 μg/kg over 2 min, minimal BP change

Compound	inner hair cell loss [1]	outer hair cell loss [1]	8-isoprostane level in the lateral wall (8-isoprostane)	8-isoprostane level in the modiolar core (8-isoprostane)	8-isoprostane level in the organ of Corti (8-isoprostane)	noise-induced ABR threshold shift [2]	hair cell loss [1]	also measured
Cc1ccc(CC2(O)CCN(CCOc3ccc(O)cc3)CC2)cc1 [PD 174494]	protected only inner hair cells	protected only inner hair cells	did not influence	suppressed	suppressed; also recorded: less with PD 174494 than with the other treatments	significantly attenuated noise-induced hearing loss at 2, 4 and 8 kHz; also recorded: decreased threshold shift	–	inner hair cell loss ([1]; listed as PD 174474): some protective effect; effect on 8-isoprostane formation relative to that of (+)-MK-801 (8-isoprostane; organ of Corti and modiolar core): about half
CCCCC[C@H](O)/C=C/[C@@H]1[C@H](C/C=C\CCCC(=O)O)[C@@H](O)C[C@H]1O [8-iso-PGF2a, 8-iso-prostaglandin F2a]	–	–	–	–	–	–	–	BP during AICA infusion (cochlear vasculature [3]; 2 min AICA infusion, some of the subjects): no significant elevation in BP; decrease in CBF (cochlear vasculature [3]; [5]): 25-30%; decrease in VC (cochlear vasculature [3]; [5]): 25-30%; blood pressure (BP) response (cochlear vasculature [3]): increasing response; cochlear blood flow (CBF) response (cochlear vasculature [3]): increasing response; blood pressure (BP) response (cochlear vasculature [3]; listed as 8-isoPGF2a): rapid and concentration-dependent change; cochlear blood flow (CBF) response (cochlear vasculature [3]; listed as 8-isoPGF2a): rapid and concentration-dependent change; cochlear vascular conductance (VC = CBF/BP) response (cochlear vasculature [3]): dose-dependent constriction of the cochlear vasculature; also recorded: Strong concentration-dependent decrease; also recorded: clear dose-dependent decrease; cochlear vascular conductance (VC = CBF/BP) response (cochlear vasculature [3]; listed as 8-isoPGF2a): strong dose-dependent decrease; dose at which the VC decrease approaches saturation (cochlear vasculature [3]; intravenous, mean maximum VC response 1.5-2.5 min after infusion initiation): approximately 30 mg/kg; BP, CBF and VC response to AICA infusion (cochlear vasculature [3]; sequential 1.25 min infusions via AICA, or 2 min AICA infusion): no significant response to the lower two doses; also recorded: dose-dependent constriction of the cochlear vasculature; also recorded: local vasoconstrictive response
(−)-MK-801	not affected	decreased	did not affect	did not affect	did not affect	–	–	–
CCOC(=O)CNC(=O)[C@H](CS)NC(=O)CC[C@H](N)C(=O)O [GSHE, glutathione-monoethyl ester]	–	–	–	–	–	–	–	effect of noise on CBF (cochlear vasculature [4]): eliminated; effect of noise on VC (cochlear vasculature [4]): eliminated
CC(=O)N[C@@H](CS)C(=O)O [NAC, N-acetylcysteine]	attenuated; also recorded: some protective effect	attenuated	attenuated	attenuated	attenuated	significantly attenuated threshold shifts at all frequencies	successful in preventing hair cell loss	–
COC(=O)[C@@H](N)CCCNC(=N)N[N+](=O)[O-] [L-NAME, L-N^ω-Nitroarginine methyl ester]	increased	not affected	suppressed; also recorded: decreased 8-isoprostane level	suppressed	decreased 8-isoprostane level in the organ of Corti	significantly attenuated at 2 kHz; also recorded: increased at 20 kHz; also recorded: not threshold shift	had no effect	–
O=C(O)CCC/C=C\C[C@@H]1[C@H](CNNC(=O)Nc2ccccc2)[C@H]2CC[C@@H]1O2 [SQ29,548]	–	–	–	–	–	–	–	decrease in cochlear vascular constriction (cochlear vasculature [3]; 35 mg/kg 8-iso-PGF2a i.v. before and after AICA infusion of antagonist, two subjects): 12%; effect on vasoconstriction (VC) by isoPGF2a (cochlear vasculature [3]; addition of the antagonist): blocked; maximum mean VC value during SQ29,548 infusion, less than after the initial 8-iso-PGF2a infusion (cochlear vasculature [3]; continuous AICA infusion of antagonist, 8-iso-PGF2a about 75-95 mg/kg i.v. over 20 sec, three subjects): 8-10%
(+)-MK-801	attenuated; also recorded: some protective effect	attenuated	did not influence	attenuated	attenuated	significantly attenuated threshold shifts at all frequencies; also recorded: decreased threshold shift	successful in preventing hair cell loss	–
